Test results reported in US20240425517A1, “NOVEL COMPOUND FOR DEGRADATION OF TARGET PROTEIN OR POLYPEPTIDE BY POLYUBIQUITINATION” (PRAZER THERAPEUTICS INC., priority 2021, published 2024).

Molecular target: T1, BRD4 proteins (Homo sapiens, UniProt O60885)
T1 construct: endogenous in cells; host or cells: MM.1S
Assay: Degradation of BRD4 protein in MM.1S cell lines (Western blot densitometry)
Assay type: cell-based
Details: MM.1S cells, 10 μM, 24 hours
Experimental: To confirm that the compounds (BRD4 degraders) of Preparation Examples I′ to IV′ reduce the amount of BRD4 proteins, experiments were performed using MM.1S cell lines, which are B cells derived from the blood of multiple myeloma patients.
Specifically, the MM.1S cells were cultured in RPMI-1640 medium supplemented with 10% fetal bovine serum and Penicillin/Streptomycin (100 U/mL), transferred to a 6-well plate, and after 24 hours, the BRD4 degraders were diluted in the culture medium and the cells were treated with 10 μM each. After treatment, the cells were incubated in a C02 incubator for 24 hours. Through protein immunoblotting (Western Blot), the degrading capacity of each compound against BRD4 proteins in cells was confirmed. After cell culture was completed according to the experimental conditions, the cells were collected and centrifuged at 1,800 rpm for 3 minutes. The cells in the precipitate were lysed with RIPA (25 mM Tris-HCl pH 7.6, 150 mM NaCl, 1% NP-40, 1% sodium deoxycholate, 0.1% SDS, 1× Protease Inhibitor Cocktail), 5× sample buffer was added, and then heated at 100° C. for 15 minutes. The prepared sample was electrophoresed with sodium dodecyl sulfate poly acrylamide gel electrophoresis (SDS-PAGE), and then the proteins in the gel were transferred to a PVDF membrane using Trans-Blot Turbo. The membrane was treated with a 5% bovine serum albumin (BSA) solution and blocked at room temperature for 2 hours, and then BRD4 and R-actin antibodies were diluted in the 5% BSA solution to react with the membrane at 4° C. overnight. After washed with PBST (0.5% Tween20) 5 times, horse radish peroxidase (HRP)-conjugated secondary antibodies were diluted in PBST to react at room temperature for 2 hours, and then washed again with a PBST solution 5 times. After enzyme-substrate reaction was carried out using a HRP substrate, a signal was measured with chemi-doc equipment, and the densitometry of a band corresponding to the BRD4 protein detected in the Preparation Example Compounds was quantitatively analyzed. The case when the degrading capacity of each BRD4 degrader was reduced by less than 40% is indicated as +, the case when the degrading capacity was reduced by 40% to 70% (exclusive of 70) is indicated as ++, the case when the degrading capacity was reduced by 70% or more is indicated as +++ in Tables 16 to 19 below. As shown in the following Tables, it was confirmed that the compounds of Preparation Examples I′ to IV′ according to the present invention have excellent degrading capacity.

Question: COC(=O)c1cc(NC(=O)CCNC(=O)C[C@@H]2N=C(c3ccc(Cl)cc3)c3c(sc(C)c3C)-n3c(C)nnc32)ccc1C#CCN.Cl [4-126′, methyl (S)-2-(3-aminoprop-1-yn-1-yl)-5-(3-(2-(4-(4-chlorophenyl)-2,3,9-trimethyl-6H-thieno[3,2-f][1,2,4]triazolo[4,3-a][1,4]diazepin-6-yl)acetamido)propanamido)benzoate hydrochloride] was tested. Which “BRD4 degrading capacity (%)” value did it give?
Answer: ++ (the degrading capacity was reduced by 40% to 70% (exclusive of 70))

Question: For Cc1sc2c(c1C)C(c1ccc(Cl)cc1)=N[C@@H](CC(=O)NCC#Cc1ccc(C#CCN)cc1)c1nnc(C)n1-2.Cl [4-128′], which “BRD4 degrading capacity (%)” value is on record?
Answer: ++ (the degrading capacity was reduced by 40% to 70% (exclusive of 70))

Question: With Cc1sc2c(c1C)C(c1ccc(Cl)cc1)=N[C@@H](CC(=O)NCC#Cc1cccc(C#CCN)c1)c1nnc(C)n1-2.Cl [4-129′, (S)—N-(3-(3-(3-aminoprop-1-yn-1-yl)phenyl)prop-2-yn-1-yl)-2-(4-(4-chlorophenyl)-2,3,9-trimethyl-6H-thieno[3,2-f][1,2,4]triazolo[4,3-a][1,4]diazepin-6-yl)acetamide hydrochloride] as the compound, how does the “BRD4 degrading capacity (%)” value read?
Answer: +++ (the degrading capacity was reduced by 70% or more)

Question: Which “BRD4 degrading capacity (%)” value does the source give for Cc1sc2c(c1C)C(c1ccc(Cl)cc1)=N[C@@H](CC(=O)NCCC#Cc1ccc(C#CCCN)o1)c1nnc(C)n1-2.Cl [4-147′, (S)—N-(4-(5-(4-aminobut-1-yn-1-yl)furan-2-yl)but-3-yn-1-yl)-2-(4-(4-chlorophenyl)-2,3,9-trimethyl-6H-thieno[3,2-f][1,2,4]triazolo[4,3-a][1,4]diazepin-6-yl)acetamide hydrochloride] here?
Answer: ++ (the degrading capacity was reduced by 40% to 70% (exclusive of 70))

Question: How did the “BRD4 degrading capacity (%)” value turn out when Cc1sc2c(c1C)C(c1ccc(Cl)cc1)=N[C@@H](CC(=O)NCC#CCNC(=O)c1ccc(C#CCN)o1)c1nnc(C)n1-2.Cl [4-148′, (S)-5-(3-aminoprop-1-yn-1-yl)-N-(4-(2-(4-(4-chlorophenyl)-2,3,9-trimethyl-6H-thieno[3,2-f][1,2,4]triazolo[4,3-a][1,4]diazepin-6-yl)acetamido)but-2-yn-1-yl)furan-2-carboxamide hydrochloride] was run?
Answer: + (the degrading capacity of each BRD4 degrader was reduced by less than 40%)

Question: How did the “BRD4 degrading capacity (%)” value turn out when Cc1sc2c(c1C)C(c1ccc(Cl)cc1)=N[C@@H](CC(=O)NCCCCNC(=O)c1ccc(C#CCN)o1)c1nnc(C)n1-2.Cl [4-149′] was run?
Answer: +++ (the degrading capacity was reduced by 70% or more)

Question: How did the “BRD4 degrading capacity (%)” value turn out when Cc1sc2c(c1C)C(c1ccc(Cl)cc1)=N[C@@H](CC(=O)NCCC(=O)Nc1cccc(C#CCN)c1)c1nnc(C)n1-2.Cl [4-161′, (S)—N-(3-(3-aminoprop-1-yn-1-yl)phenyl)-3-(2-(4-(4-chlorophenyl)-2,3,9-trimethyl-6H-thieno[3,2-f][1,2,4]triazolo[4,3-a][1,4]diazepin-6-yl)acetamido)propanamide hydrochloride] was run?
Answer: +++ (the degrading capacity was reduced by 70% or more)

Question: Which “BRD4 degrading capacity (%)” value does the source give for Cc1sc2c(c1C)C(c1ccc(Cl)cc1)=N[C@@H](CC(=O)NCCCC(=O)Nc1ccc(C#CCN)cc1)c1nnc(C)n1-2.Cl [4-162′, (S)—N-(4-(3-aminoprop-1-yn-1-yl)phenyl)-4-(2-(4-(4-chlorophenyl)-2,3,9-trimethyl-6H-thieno[3,2-f][1,2,4]triazolo[4,3-a][1,4]diazepin-6-yl)acetamido)butanamide hydrochloride] here?
Answer: +++ (the degrading capacity was reduced by 70% or more)

Question: Cc1sc2c(c1C)C(c1ccc(Cl)cc1)=N[C@@H](CC(=O)NCCCCC(=O)Nc1ccc(C#CCN)cc1)c1nnc(C)n1-2.Cl [4-163′, (S)—N-(4-(3-aminoprop-1-yn-1-yl)phenyl)-5-(2-(4-(4-chlorophenyl)-2,3,9-trimethyl-6H-thieno[3,2-f][1,2,4]triazolo[4,3-a][1,4]diazepin-6-yl)acetamido)pentanamide hydrochloride] was tested. Which “BRD4 degrading capacity (%)” value did it give?
Answer: +++ (the degrading capacity was reduced by 70% or more)

Question: For Cc1sc2c(c1C)C(c1ccc(Cl)cc1)=N[C@@H](CC(=O)NCCCCC(=O)Nc1cccc(C#CCN)c1)c1nnc(C)n1-2.Cl [4-164′, (S)—N-(3-(3-aminoprop-1-yn-1-yl)phenyl)-5-(2-(4-(4-chlorophenyl)-2,3,9-trimethyl-6H-thieno[3,2-f][1,2,4]triazolo[4,3-a][1,4]diazepin-6-yl)acetamido)pentanamide hydrochloride], which “BRD4 degrading capacity (%)” value is on record?
Answer: ++ (the degrading capacity was reduced by 40% to 70% (exclusive of 70))

Question: How did the “BRD4 degrading capacity (%)” value turn out when Cc1sc2c(c1C)C(c1ccc(Cl)cc1)=N[C@@H](CC(=O)NCCCCCC(=O)Nc1ccc(C#CCN)cc1)c1nnc(C)n1-2.Cl [4-165′, (S)—N-(4-(3-aminoprop-1-yn-1-yl)phenyl)-6-(2-(4-(4-chlorophenyl)-2,3,9-trimethyl-6H-thieno[3,2-f][1,2,4]triazolo[4,3-a][1,4]diazepin-6-yl)acetamido)hexanamide hydrochloride] was run?
Answer: +++ (the degrading capacity was reduced by 70% or more)

Question: With Cc1sc2c(c1C)C(c1ccc(Cl)cc1)=N[C@@H](CC(=O)NCCCNC(=O)c1ccc(C#CCN)o1)c1nnc(C)n1-2.Cl [4-166′] as the compound, how does the “BRD4 degrading capacity (%)” value read?
Answer: +++ (the degrading capacity was reduced by 70% or more)

Question: With Cc1sc2c(c1C)C(c1ccc(Cl)cc1)=N[C@@H](CC(=O)NCCCCCNC(=O)c1ccc(C#CCN)o1)c1nnc(C)n1-2.Cl [4-167′, (S)-5-(3-aminoprop-1-yn-1-yl)-N-(5-(2-(4-(4-chlorophenyl)-2,3,9-trimethyl-6H-thieno[3,2-f][1,2,4]triazolo[4,3-a][1,4]diazepin-6-yl)acetamido)pentyl)furan-2-carboxamide hydrochloride] as the compound, how does the “BRD4 degrading capacity (%)” value read?
Answer: ++ (the degrading capacity was reduced by 40% to 70% (exclusive of 70))

Question: How did the “BRD4 degrading capacity (%)” value turn out when Cc1sc2c(c1C)C(c1ccc(Cl)cc1)=N[C@@H](CC(=O)NCC#Cc1ccc(C#CCN)nc1)c1nnc(C)n1-2.Cl [4-179′, (S)—N-(3-(6-(3-aminoprop-1-yn-1-yl)pyridin-3-yl)prop-2-yn-1-yl)-2-(4-(4-chlorophenyl)-2,3,9-trimethyl-6H-thieno[3,2-f][1,2,4]triazolo[4,3-a][1,4]diazepin-6-yl)acetamide hydrochloride] was run?
Answer: + (the degrading capacity of each BRD4 degrader was reduced by less than 40%)

Question: How did the “BRD4 degrading capacity (%)” value turn out when Cc1sc2c(c1C)C(c1ccc(Cl)cc1)=N[C@@H](CC(=O)NCC#Cc1ccc(C#CCON)s1)c1nnc(C)n1-2.Cl [4-223′, (S)—N-(3-(5-(3-(aminooxy)prop-1-yn-1-yl)thiophen-2-yl)prop-2-yn-1-yl)-2-(4-(4-chlorophenyl)-2,3,9-trimethyl-6H-thieno[3,2-f][1,2,4]triazolo[4,3-a][1,4]diazepin-6-yl)acetamide hydrochloride] was run?
Answer: ++ (the degrading capacity was reduced by 40% to 70% (exclusive of 70))

Question: For Cc1sc2c(c1C)C(c1ccc(Cl)cc1)=N[C@@H](CC(=O)NCCCCCCCCCNC(=O)c1ccc(C#CCN)o1)c1nnc(C)n1-2.Cl [4-225′, (S)-5-(3-aminoprop-1-yn-1-yl)-N-(9-(2-(4-(4-chlorophenyl)-2,3,9-trimethyl-6H-thieno[3,2-f][1,2,4]triazolo[4,3-a][1,4]diazepin-6-yl)acetamido)nonyl)furan-2-carboxamide hydrochloride], which “BRD4 degrading capacity (%)” value is on record?
Answer: +++ (the degrading capacity was reduced by 70% or more)
